Structures are written as SMILES. Like-named read-outs stand apart in the source and are kept apart here.

For this test, the system named is test plant species. Kind of test: Post-emergent herbicidal activity test (greenhouse, foliar spray, visual growth reduction). In kind it is in vivo. Conditions: post-emergence, 336 h, 140 g ai/ha, 14 days after application. The method in brief: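 Plants grown in greenhouse (15 h photoperiod, 23-29° C day/22-28° C night) to first or second true leaf stage were sprayed overhead with compound in acetone/water/isopropanol/DMSO/crop oil/X-77 carrier at 187 L/ha. Injury was scored visually after 14 d on a 0-100% scale versus solvent-blank and untreated controls.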

Setting [1] is: ALOMY: blackgrass (Alopecurus myosuroides), read-out: Visual Growth Reduction (%) 14 Days After Application, ALOMY.
[2] abbreviates: AMARE: redroot pigweed (Amaranthus retroflexus), read-out: Visual Growth Reduction (%) 14 Days After Application, AMARE.
The mark [3] stands for this setting: AVEFA: wild oat (Avena fatua), read-out: Visual Growth Reduction (%) 14 Days After Application, AVEFA.
[4] abbreviates: CHEAL: lambsquarters (Chenopodium album), read-out: Visual Growth Reduction (%) 14 Days After Application, CHEAL.
The mark [5] stands for this setting: CIRAR: canada thistle (Cirsium arvense), read-out: Visual Growth Reduction (%) 14 Days After Application, CIRAR.
Setting [6] is: CYPES: yellow nutsedge (Cyperus esculentus), read-out: Visual Growth Reduction (%) 14 Days After Application, CYPES.
Setting [7] is: DIGSA: crabgrass (Digitaria sanguinalis), read-out: Visual Growth Reduction (%) 14 Days After Application, DIGSA.
Setting [8] is: ECHCG: barnyardgrass (Echinochloa crus-galli), read-out: Visual Growth Reduction (%) 14 Days After Application, ECHCG.
The mark [9] stands for this setting: IPOHE: ivy-leaf morning glory (Ipomoea hederacea), read-out: Visual Growth Reduction (%) 14 Days After Application, IPOHE.
Setting [10] is: KCHSC: kochia (Bassia scoparia), read-out: Visual Growth Reduction (%) 14 Days After Application, KCHSC.
Setting [11] is: ORYSA: rice (Oryza sativa), read-out: Visual Growth Reduction (%) 14 Days After Application, ORYSA.
[12] abbreviates: SETFA: giant foxtail (Setaria faberi), read-out: Visual Growth Reduction (%) 14 Days After Application, SETFA.
The mark [13] stands for this setting: SORVU: grain sorghum (Sorghum vulgare), read-out: Visual Growth Reduction (%) 14 Days After Application, SORVU.
The mark [14] stands for this setting: STEME: common chickweed (Stellaria media), read-out: Visual Growth Reduction (%) 14 Days After Application, STEME.
The mark [15] stands for this setting: TRZAS: wheat, spring (Triticum aestivum), read-out: Visual Growth Reduction (%) 14 Days After Application, TRZAS.

With `COC(=O)c1nc(-c2c(Cl)cc(C(F)(F)F)cc2C#N)ccc1Cl` [F118, Methyl 3-chloro-6-(2-chloro-6-cyano-4-(trifluoromethyl)phenyl)picolinate], the pest or weed control at 140 g/ha was 30 to 44% under setting [1]; 95 to 100% under setting [2]; 60 to 74% under setting [3]; 95 to 100% under setting [4]; 95 to 100% under setting [5]; 45 to 59% under setting [6]. Moreover, the pest or weed control at 140 g/ha lay in the range of 85 to 94% under setting [7]; 85 to 94% under setting [8]; 95 to 100% under setting [9]; 95 to 100% under setting [10]; 60 to 74% under setting [11]; 60 to 74% under setting [12]. The pest or weed control at 140 g/ha lay in the range of 85 to 94% under setting [13], 0 to 29% under setting [14] and 0 to 29% under setting [15].
Turning to `COC(=O)c1nc(-c2ccc(C(F)(F)F)c([S+](C)[O-])c2Cl)ccc1Cl` (stereo not drawn) [F119, methyl 3-chloro-6-(2-chloro-3-(methylsulfinyl)-4-(trifluoromethyl)phenyl)picolinate], the pest or weed control at 140 g/ha runs as follows: under setting [1], 0 to 29%; under setting [2], 0 to 29%; under setting [3], 0 to 29%; under setting [4], 0 to 29%; under setting [5], 0 to 29%; under setting [6], 0 to 29%. In addition, the pest or weed control at 140 g/ha fell in the range of 0 to 29% under setting [7]; 0 to 29% under setting [8]; 0 to 29% under setting [9]; 0 to 29% under setting [10]; 0 to 29% under setting [11]; 0 to 29% under setting [12]. For the same compound, the pest or weed control at 140 g/ha under setting [13] lay in the range of 0 to 29%, the pest or weed control at 140 g/ha under setting [14] was 0 to 29% and the pest or weed control at 140 g/ha under setting [15] is 0 to 29%.
Turning to `COC(=O)c1nc(-c2c(Cl)cc(C(F)(F)F)cc2[S+](C)[O-])ccc1Cl` (stereo not drawn) [F120, methyl 3-chloro-6-(2-chloro-6-(methylsulfinyl)-4-(trifluoromethyl)phenyl)picolinate], the pest or weed control at 140 g/ha by setting is: under setting [1], 0 to 29%; under setting [2], 45 to 59%; under setting [3], 0 to 29%; under setting [4], 30 to 44%; under setting [5], 60 to 74%; under setting [6], 0 to 29%. For the same compound, the pest or weed control at 140 g/ha reads like this: under setting [7], 0 to 29%; under setting [8], 0 to 29%; under setting [9], 30 to 44%; under setting [10], 60 to 74%; under setting [11], 0 to 29%; under setting [12], 0 to 29%. The pest or weed control at 140 g/ha under setting [13] was in the range of 0 to 29%, the pest or weed control at 140 g/ha under setting [14] lay within 0 to 29% and the pest or weed control at 140 g/ha under setting [15] fell in the range of 0 to 29%.
As to `COC(=O)c1nc(-c2ccc(C(F)(F)F)c(SC)c2Cl)ccc1Cl` [F121, methyl 3-chloro-6-(2-chloro-3-(methylthio)-4-(trifluoromethyl)phenyl)picolinate], the pest or weed control at 140 g/ha lay within 0 to 29% under setting [1]; 30 to 44% under setting [2]; 0 to 29% under setting [3]; 0 to 29% under setting [4]; 0 to 29% under setting [5]; 0 to 29% under setting [6]. The pest or weed control at 140 g/ha is, setting by setting: under setting [7], 0 to 29%; under setting [8], 0 to 29%; under setting [9], 0 to 29%; under setting [10], 0 to 29%; under setting [11], 0 to 29%; under setting [12], 0 to 29%. Moreover, the pest or weed control at 140 g/ha lay within 0 to 29% under setting [13], 0 to 29% under setting [14] and 0 to 29% under setting [15].
Take `COC(=O)c1nc(-c2c(Cl)cc(C(F)(F)F)cc2SC)ccc1Cl` [F122, methyl 3-chloro-6-(2-chloro-6-(methylthio)-4-(trifluoromethyl)phenyl)picolinate]: the pest or weed control at 140 g/ha lay in the range of 0 to 29% under setting [1]; 95 to 100% under setting [2]; 0 to 29% under setting [3]; 60 to 74% under setting [4]; 60 to 74% under setting [5]; 0 to 29% under setting [6]. Moreover, the pest or weed control at 140 g/ha lay in the range of 30 to 44% under setting [7]; 45 to 59% under setting [8]; 95 to 100% under setting [9]; 75 to 84% under setting [10]; 0 to 29% under setting [11]; 85 to 94% under setting [12]. Moreover, the pest or weed control at 140 g/ha runs as follows: under setting [13], 75 to 84%; under setting [14], 0 to 29%; under setting [15], 0 to 29%.
Take `COC(=O)c1nc(-c2ccc(Oc3ccc(F)cc3)cc2Cl)ccc1Cl` [F123, Methyl 3-chloro-6-(2-chloro-4-(4-fluorophe)phenyl) picolinate]: the pest or weed control at 140 g/ha is, setting by setting: under setting [1], 0 to 29%; under setting [2], 0 to 29%; under setting [3], 0 to 29%; under setting [4], 0 to 29%; under setting [5], 0 to 29%; under setting [6], 0 to 29%. The pest or weed control at 140 g/ha under setting [7] was in the range of 0 to 29%; the pest or weed control at 140 g/ha under setting [8] is 0 to 29%; the pest or weed control at 140 g/ha under setting [9] fell in the range of 30 to 44%; the pest or weed control at 140 g/ha under setting [10] fell in the range of 0 to 29%; the pest or weed control at 140 g/ha under setting [11] fell in the range of 0 to 29%; the pest or weed control at 140 g/ha under setting [12] lay in the range of 0 to 29%. For the same compound, the pest or weed control at 140 g/ha reads like this: under setting [13], 0 to 29%; under setting [14], 0 to 29%; under setting [15], 0 to 29%.
On to `COC(=O)c1nc(-c2cc3c(cc2Cl)OC(F)(F)O3)ccc1Cl` [F124, Methyl 3-chloro-6-(6-chloro-2,2-difluorobenzo[d] [1,3]dioxol-5-yl)picolinate], for which the pest or weed control at 140 g/ha runs as follows: under setting [1], 45 to 59%; under setting [2], 75 to 84%; under setting [3], 30 to 44%; under setting [4], 85 to 94%; under setting [5], 75 to 84%; under setting [6], 0 to 29%. Also, the pest or weed control at 140 g/ha was 85 to 94% under setting [7]; 75 to 84% under setting [8]; 95 to 100% under setting [9]; 45 to 59% under setting [10]; 0 to 29% under setting [11]; 30 to 44% under setting [12]. Moreover, the pest or weed control at 140 g/ha fell in the range of 75 to 84% under setting [13], 0 to 29% under setting [14] and 60 to 74% under setting [15].
